Test results reported in US20220144812A1, “QUINOLINE DERIVATIVES AND THEIR USE FOR THE TREATMENT OF CANCER” (Epizyme, Inc., priority 2019, published 2022).
Like-named read-outs stand apart in the source and are kept apart here.

Columns and labels:
[1] = system: H3K18Ac in HB-CLS-2 cells; assay: H3K18AC in-cell western (ICW) assay; assay type: cell-based; conditions: H3K18Ac in-cell western; read-out: CREBBP ICW IC50
How it was run: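 In-cell western: after methanol fixation, blocking, overnight 4° C anti-H3K18Ac staining, then 800CW secondary plus DRAQ5 for DNA content, integrated intensities were scanned at 800 and 700 nm. Before this, compound exposure lasted 2 hr at 37° C in HB-CLS-2 cells plated 16–24 hours earlier. Values expressed as IC50 (μM).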

[2] = target: T1, CREBBP (1084-1701) (Homo sapiens, UniProt Q92793); assay: Biochemical assay for CREBBP (1084-1701), SAMDI; conditions: SAMDI, read-out: CREBBP Biochemistry IC50
T1 construct: measured in the following biochemical assay using CREBBP (1084-1701); purchased
T1 sequence (Q92793 1084-1701): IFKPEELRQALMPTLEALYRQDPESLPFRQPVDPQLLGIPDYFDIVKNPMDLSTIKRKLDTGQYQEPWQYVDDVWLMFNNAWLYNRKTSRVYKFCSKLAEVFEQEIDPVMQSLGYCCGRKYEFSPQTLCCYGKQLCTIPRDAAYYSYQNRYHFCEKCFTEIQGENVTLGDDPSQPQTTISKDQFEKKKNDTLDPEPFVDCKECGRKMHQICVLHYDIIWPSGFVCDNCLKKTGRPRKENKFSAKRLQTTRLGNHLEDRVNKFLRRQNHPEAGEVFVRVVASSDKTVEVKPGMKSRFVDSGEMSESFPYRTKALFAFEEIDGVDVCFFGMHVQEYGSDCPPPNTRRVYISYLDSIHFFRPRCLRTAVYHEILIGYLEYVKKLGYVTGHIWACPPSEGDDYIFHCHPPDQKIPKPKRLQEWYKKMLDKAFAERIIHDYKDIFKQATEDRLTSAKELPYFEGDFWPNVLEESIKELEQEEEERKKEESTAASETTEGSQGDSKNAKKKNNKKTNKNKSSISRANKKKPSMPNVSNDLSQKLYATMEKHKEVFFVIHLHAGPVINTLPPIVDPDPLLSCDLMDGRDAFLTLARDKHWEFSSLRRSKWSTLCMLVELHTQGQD
How it was run: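 Acetyltransferase activity measured by SAMDI mass spectrometry after capture on biochip. Enzyme sat with compound 30 min at RT before acetyl-CoA and biotinylated H3 11-25 (K14R, K23R) peptide were added for 30 min at RT. Formic acid quench, bicarbonate neutralisation; IC50 values reported.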

[3] = target: T2, EP300 (P300(1048-1664)) (Homo sapiens, UniProt Q09472); assay: Biochemical assay for EP300, SAMDI; conditions: EP300, SAMDI; read-out: EP300 Biochemistry IC50
T2 construct: P300(1048-1664)
T2 sequence (Q09472 1048-1664): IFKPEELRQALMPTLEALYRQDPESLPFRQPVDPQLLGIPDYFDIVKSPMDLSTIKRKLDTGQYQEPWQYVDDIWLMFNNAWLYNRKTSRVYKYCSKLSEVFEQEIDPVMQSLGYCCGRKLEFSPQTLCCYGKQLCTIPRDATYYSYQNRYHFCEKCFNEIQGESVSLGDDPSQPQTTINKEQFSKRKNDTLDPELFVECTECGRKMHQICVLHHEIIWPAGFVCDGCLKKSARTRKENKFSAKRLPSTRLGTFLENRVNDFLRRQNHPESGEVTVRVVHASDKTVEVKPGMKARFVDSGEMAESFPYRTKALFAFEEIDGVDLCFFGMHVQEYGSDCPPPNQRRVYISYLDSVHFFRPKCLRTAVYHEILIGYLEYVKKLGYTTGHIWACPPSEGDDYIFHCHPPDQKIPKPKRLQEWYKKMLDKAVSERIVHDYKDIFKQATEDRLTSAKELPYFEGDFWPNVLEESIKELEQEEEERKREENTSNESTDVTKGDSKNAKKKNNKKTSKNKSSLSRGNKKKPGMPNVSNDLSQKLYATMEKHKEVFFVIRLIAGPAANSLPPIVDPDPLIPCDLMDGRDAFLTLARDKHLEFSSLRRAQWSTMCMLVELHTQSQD
Text: The following example describes materials and methods relating to a biochemical assay for EP300. IC50 values (micromolar (μM)) are summarized in Table 1, Table 2, and Table 3 under the column labeled: “EP300 Biochemistry IC50 (micromolar).”

[4] = system: 647V cells; assay: High throughput proliferation (HTP) assay; assay type: cell-based; conditions: high throughput proliferation, read-out: CREBBP HTP IC50
How it was run: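 Proliferation IC50 (micromolar) derived from a 7-day CellTiter-Glo viable-cell readout in 647V cells exposed, in triplicate, to rising compound concentrations; cells grown in DMEM plus 15% heat-inactivated FBS at 37° C under 5% CO2.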

SMILES | IC50 [1] | IC50 [2] | IC50 [3] | IC50 ([4]; Homo sapiens, 647-V) | IC50 [4]
CCn1ncc(CN(C)C(=O)c2nc(-c3ccc(O[C@@H]4CNC[C@H]4O)cc3Cl)nc3ccc(Cl)cc23)c1C [Compound 38] | 330 nM | 34 nM | 12 nM | 230 nM | –
CCn1ncc(CN(C)C(=O)c2nc(-c3ccc4[nH]c(C)nc4c3)nc3ccc(Cl)cc23)c1C [Compound 39] | 340 nM | 650 nM | 680 nM | 250 nM | –
CCn1ncc(CN(C)C(=O)c2nc(-c3ccc(OCCN4CCCC4)cc3Cl)nc3ccc(Cl)cc23)c1C [Compound 40] | 350 nM | 110 nM | 130 nM | 220 nM | –
CCn1ncc(CN(C)C(=O)c2nc(-c3ccc(OCCO)c(Cl)c3)nc3ccc(Cl)cc23)c1C [Compound 41] | 370 nM | 62 nM | 250 nM | 160 nM | –
CCn1ncc(CN(C)C(=O)c2nc(-c3ccc(OCCCN4CCCCC4)c(C)c3)nc3ccc(Cl)cc23)c1C [Compound 42] | 380 nM | 69 nM | 88 nM | 180 nM | –
CCn1ncc(CN(C)C(=O)c2nc(-c3ccc(OCCNC(C)=O)c(C)c3)nc3ccc(Cl)cc23)c1C [Compound 43] | 380 nM | 69 nM | 340 nM | 460 nM | –
CCn1ncc(CN(C)C(=O)c2nc(-c3cc(C)c4n[nH]cc4c3)nc3ccc(Cl)cc23)c1C [Compound 44] | 380 nM | 27 nM | 83 nM | 270 nM | –
CCn1ncc(CN(C)C(=O)c2cc(-c3ccc(OCCO)c(C)n3)nc3ccc(Cl)cc23)c1C [Compound 45] | 390 nM | 74 nM | 75 nM | 380 nM | –
CCn1ncc(CN(C)C(=O)c2nc(-c3ccc(OCCCNC)c(C4CC4)c3)nc3ccc(Cl)cc23)c1C [Compound 46] | 410 nM | 41 nM | 320 nM | 200 nM | –
CCn1ncc(CN(C)C(=O)c2cc(-c3cnc[nH]3)nc3ccc(Cl)cc23)c1C [Compound 48] | 450 nM | 380 nM | 110 nM | 770 nM | –
CCn1ncc(CN(C)C(=O)c2nc(-c3cc(Cl)cc(NCCCNC)c3)nc3ccc(Cl)cc23)c1C [Compound 50] | 480 nM | 16 nM | 5 nM | – | 150 nM
CCn1ncc(CN(C)C(=O)c2nc(-c3cc4nc[nH]c4cc3OC)nc3ccc(Cl)cc23)c1C [Compound 51] | 520 nM | 570 nM | 690 nM | 520 nM | –
CCn1ncc(CN(C)C(=O)c2nc(-c3ccc(OCCCO)cc3C)nc3ccc(Cl)cc23)c1C [Compound 53] | 570 nM | 130 nM | 280 nM | 460 nM | –
CCn1ncc(CN(C)C(=O)c2nc(-c3ccc(OCCN4CCCC4)c(Cl)c3)nc3ccc(Cl)cc23)c1C [Compound 54] | 570 nM | 63 nM | 330 nM | 280 nM | –
CCn1ncc(CN(C)C(=O)c2nc(-c3cc(C)cc(NC4CCNCC4)c3)nc3ccc(Cl)cc23)c1C [Compound 55] | 600 nM | 21 nM | 7 nM | 240 nM | –
CCn1ncc(CN(C)C(=O)c2nc(-c3ccc(OCCNC(C)=O)cc3Cl)nc3ccc(Cl)cc23)c1C [Compound 56] | 630 nM | 280 nM | 580 nM | 520 nM | –
CCn1ncc(CN(C)C(=O)c2nc(-c3ccc(NC4CCOCC4)cn3)nc3ccc(Cl)cc23)c1C [Compound 58] | 670 nM | 1500 nM | 610 nM | 1400 nM | –
CCn1ncc(CN(C)C(=O)c2nc(-c3cc(Cl)cc(OCCNC)c3)nc3ccc(Cl)cc23)c1C [Compound 60] | 880 nM | 23 nM | 11 nM | 500 nM | –
CCn1ncc(CN(C)C(=O)c2cc(-c3cccc(N)n3)nc3ccc(Cl)cc23)c1C [Compound 63] | 710 nM | 440 nM | 240 nM | 1500 nM | –

SMILES | IC50 [1] | IC50 [2] | IC50 [3] | IC50 ([4]; Homo sapiens, 647-V) | IC50 [4]
CCn1ncc(CN(C)C(=O)c2nc(-c3ccc(NC4CCOCC4)c(OC)c3)nc3ccc(Cl)cc23)c1C [Compound 64] | 710 nM | 79 nM | 300 nM | 580 nM | –
CCn1ncc(CN(C)C(=O)c2nc(-c3cc(C(=O)NC4CCN(C)CC4)n(C)n3)nc3ccc(Cl)cc23)c1C [Compound 65] | 720 nM | 410 nM | 790 nM | 740 nM | –
CCn1ncc(CN(C)C(=O)c2nc(-c3ccc(OCCCO)c(C)c3)nc3ccc(Cl)cc23)c1C [Compound 66] | 730 nM | 380 nM | 780 nM | 540 nM | –
CCn1ncc(CN(C)C(=O)c2nc(-c3ccc4cc[nH]c4c3)nc3ccc(Cl)cc23)c1C [Compound 67] | 780 nM | 280 nM | 250 nM | 550 nM | –
CCn1ncc(CN(C)C(=O)c2nc(-c3cc(C)cc(CNC)c3)nc3ccc(Cl)cc23)c1C [Compound 69] | 880 nM | 100 nM | 610 nM | 420 nM | –
CCn1ncc(CN(C)C(=O)c2cc(-c3cn(CCNC)cn3)nc3ccc(Cl)cc23)c1C [Compound 73] | 1000 nM | 820 nM | 360 nM | – | 1300 nM
CCn1ncc(CN(C)C(=O)c2cc(-c3ccc(NC(=O)CNC)c(C)n3)nc3ccc(Cl)cc23)c1C [Compound 74] | 1000 nM | 2100 nM | 1100 nM | 1500 nM | –
CCn1ncc(CN(C)C(=O)c2nc(-c3cc(C(=O)NCCCN4CCCC4)[nH]n3)nc3ccc(Cl)cc23)c1C [Compound 75] | 1000 nM | 130 nM | 54 nM | 510 nM | –
CCn1ncc(CN(C)C(=O)c2nc(-c3ccc(OCCN)c(C)c3)nc3ccc(Cl)cc23)c1C [Compound 76] | 1100 nM | 28 nM | 180 nM | 840 nM | –
CCn1ncc(CN(C)C(=O)c2nc(-c3ccnc(N)c3)nc3ccc(Cl)cc23)c1C [Compound 77] | 1100 nM | 1600 nM | 1300 nM | 760 nM | –
CCn1ncc(CN(C)C(=O)c2nc(-c3cc(C)cc(NC4CCOCC4)c3)nc3ccc(Cl)cc23)c1C [Compound 78] | 1100 nM | 67 nM | 66 nM | 1200 nM | –
CCn1ncc(CN(C)C(=O)c2nc(-c3ccc(NCCNC)c(C)n3)nc3ccc(Cl)cc23)c1C [Compound 79] | 1200 nM | 670 nM | 2100 nM | 850 nM | –
CCn1ncc(CN(C)C(=O)c2nc(-c3cc(C(=O)NCCN4CCCC4)[nH]n3)nc3ccc(Cl)cc23)c1C [Compound 80] | 1200 nM | 1200 nM | 690 nM | 1400 nM | –
CCn1ncc(CN(C)C(=O)c2nc(-c3cc(Cl)cc(CNC)c3)nc3ccc(Cl)cc23)c1C [Compound 82] | 1200 nM | 100 nM | 460 nM | 580 nM | –
CCn1ncc(CN(C)C(=O)c2nc(-c3ccc(OCCCNC)c(OC)c3)nc3ccc(Cl)cc23)c1C [Compound 84] | 1300 nM | 820 nM | 2500 nM | 850 nM | –
CCn1ncc(CN(C)C(=O)c2nc(-c3cccc(Cl)c3)nc3c(CNC)cc(Cl)cc23)c1C [Compound 85] | 1300 nM | 180 nM | 400 nM | 1300 nM | –
CCn1ncc(CN(C)C(=O)c2nc(-c3ccnc(Cl)c3)nc3ccc(NC)cc23)c1C [Compound 87] | 1400 nM | 840 nM | 880 nM | 1400 nM | –
CCn1ncc(CN(C)C(=O)c2nc(-c3ccc4nc[nH]c4c3Cl)nc3ccc(COC)cc23)c1C [Compound 89] | 1600 nM | 180 nM | 1000 nM | 1200 nM | –
